Data: patent US20230140298A1, “TOPICAL COMPOSITION COMPRISING RETINOL AND PDRN AND USE OF SAME” (DR. J SKINCLINIC, INC., priority 2021, published 2023)

Experiments:
Assay type in all cases: cell-based, human
p38 = assay: Expression and phosphorylation of p38 in HaCaT cells (Western blot); settings: 10 μM all-trans retinol, 48 hours, FIG. 3
Description: Referring to FIG. 1, altered signaling pathways in the retinol-treated HaCaT cells were investigated. The HaCaT cells were harvested 48 hours after treatment of retinol and c-PDRN at the indicated concentrations, and expression and phosphorylation levels of inflammation-related signaling mediator, p38 were determined using Western blot. Antibodies against p38 or phosphorylated p38 (p-p38) were purchased from Cell Signaling Technology (Danvers, Mass.). The expression and phosphorylation levels of inflammation-related signaling mediator, p38 were evaluated after treatment with 10 μM all-trans retinol and c-PDRN at the indicated concentrations using Western blot to study p38 signaling pathway.

IL-8 = assay: Retinol-induced IL-8 release in HaCaT cells (ELISA); settings: 10 μM all-trans retinol, 48 hours
Description: (§1) Referring to FIG. 1, immortalized human keratinocytes HaCaT cells were cultured in 96-well plates and treated with 10 μM of all-trans retinol (Sigma-Aldrich, St. Louis, Mo.) and c-PDRN® obtained from (PharmaResearch, Seongnam-si, Gyeonggi-do, Korea) at the indicated concentrations. […] The levels of secreted cytokine were normalized against a standard dose-response curve. c-PDRN is a hydrolyzed DNA fragment mixture extracted from the testes of adult salmon (Oncorhynchus keta, Salmonidae) The inhibitory effects of c-PDRN were evaluated on retinol-induced secretion of MCP-1 or IL-8 in cultured human keratinocytes, HaCaT cells by enzyme-linked immunosorbent assay (ELISA) to study IL-8, MCP-1 signaling pathway. The cultured HaCaT cells were treated with 10 μM all-trans retinol prior to c-PDRN treatment at the indicated concentrations. After incubation for 48 hours, the levels of secreted IL-8 or MCP-1 were measured and normalized against a standard IL-8 or MCP-1 dose-response curve. Data were shown as the means of three individual experiments with five wells per group. All-trans retinol induced increases in IL-8 and MCP-1 secretion by 8-fold and 1.4-fold, respectively. Efficacy range was c-PDRN 10 ppm ˜100 ppm or 0.001%-0.01%.

MCP-1 = assay: Retinol-induced MCP-1 release in HaCaT cells (ELISA); settings: 10 μM all-trans retinol, 48 hours
Description: as §1

CC1=C(/C=C/C(C)=C/C=C/C(C)=C/CO)C(C)(C)CCC1 [All-trans retinol, all-trans retinol]
phosphorylation of p38 protein induced (p38): 1.6 fold | increase in IL-8 secretion (IL-8): 8 fold | increase in MCP-1 secretion (MCP-1): 1.4 fold
